Test results published in patent US4931498A, “Immobilized artificial membranes” (Purdue Research Foundation, priority 1988, dated 1990).
Square brackets hold non-standard residues; d marks the D form. Ends that are not written are not given here. Peptide text beside a SMILES is read from it.

Legend:
[1] = HPLC elution on Nucleosil-lecithin (immobilized artificial membrane) column; assay type: physicochemical; set-up: Elution times: unit not given beside the values; conditions: for Elution Volumes on Nucleosil-Lecithin, Mobile Phase 0.1% TFA: peptides dissolved in 0.1% aqueous TFA; for Elution Volumes on Nucleosil-Lecithin, Mobile Phase 0.1% TFA / Elution Volumes on Nucleosil-Lecithin, Mobile Phase PBS: detection 220 nm; for Elution Volumes on Nucleosil-Lecithin, Mobile Phase PBS: mobile phase isotonic phosphate buffered saline (pH 7.34); for Elution times: Nucleosil-lecithin column, mobile phase isotonic buffered saline at 1.0 ml/min, detection at 260 nm
Description: A 4 mm×100 mm HPLC column was packed with about one gram of Nucleosil-lecithin (pooled from several preparations above) using a Shandon column packer. Excess Nucleosil-lecithin (1.45 grams) was suspended in 15 ml of degassed methanol and then sonicated 5 minutes to assure particle dispersion. The dispersion was transferred to the 30-ml slurry reservoir on the column packer, and 15 ml of degassed methanol was added to fill the reservoir. The column was packed at 4500 psi.
The HPLC elution properties of the Nucleosil-lecithin column were evaluated.
Separation of 2-deoxycytidine (C), 2-deoxyuridine (U), 2'-deoxyguanosine (G) and 2'-deoxyadenosine (A) was effected using isotonic buffered saline as the mobile phase at 1.0 ml/min with detection at 260 nm. Elution times were as follows: C - 1.175; U - 1.465; G - 1.730; and A - 2.090.
FIG. 11 is a chromatogram for a mixture of Peptides I and II, dissolved in 0.1% aqueous trifluoracetic acid (TFA) and detected at 220 nm. In FIG. 11 the mobile phase was isotonic phosphate buffered saline (pH 7.34). FIG. 12 is a chromatogram for a mixture of Peptides III and IV, dissolved in 0.1% aqueous trifluoracetic acid (TFA) and detected at 220 nm. In FIG. 12 the mobile phase was 0.1% TFA.

[2] = HPLC elution on cholesterol-loaded Nucleosil-lecithin column; assay type: physicochemical; conditions: for Elution Volumes by Mobile Phase, H2O: mobile phase water
Description: The Nucleosil-lecithin chromatography support material was then "loaded" with cholesterol in situ using the following procedure.
A solution of 80 ml of 1 mg/ml cholesterol in MeOH:isopropanol/8:2 was pumped through the Nucleosil-lecithin using a Bendex pump. […] Approximately […] was recovered in the effluent showing that 40 mg of cholesterol was loaded onto the Nucleosil-lecithin column. This is approximately 50% by weight of the bonded phase. The Nucleosil-lecithin/cholesterol column containing MeOH/isopropanol was attached to the HPLC and eluted with water (approximately 100 ml). The mobile phase was changed to 0.1% TFA and peptides dissolved in 0.1% TFA were injected to determine the elution volumes. The mobile phase was changed to water and the peptides were reinjected after the column was equilibrated with 100 ml of water to determine the elution volumes. The column was washed with PBS buffer (100 ml) and the peptides were again injected to determine elution volumes using PBS as the mobile phase.

Compound | Elution Volumes on Nucleosil-Lecithin, Mobile Phase 0.1% TFA [1] | Elution Volumes on Nucleosil-Lecithin, Mobile Phase PBS [1] | Elution Volumes by Mobile Phase, 0.1% TFA [2] | Elution Volumes by Mobile Phase, PBS [2] | Elution Volumes by Mobile Phase, H2O [2] | Elution times [1]
MPSWTGGC [Peptide III, NH2 M-P-S-W-T-G-G-C--COOH] | 9.4 | 10.0 | 5.3 | 6.9 | 9.2 | –
Nc1ncnc2c1ncn2[C@H]1C[C@H](O)[C@@H](CO)O1 [2'-deoxyadenosine] | – | – | – | – | – | 2.090
Nc1nc2c(ncn2[C@H]2C[C@H](O)[C@@H](CO)O2)c(=O)[nH]1 [2'-deoxyguanosine] | – | – | – | – | – | 1.730
Nc1ccn([C@H]2C[C@H](O)[C@@H](CO)O2)c(=O)n1 [2-deoxycytidine] | – | – | – | – | – | 1.175
Ac-HIFNQ-NH2 [Peptide VII, NacH-I-F-N-QNH2] | – | 3.8 | 1.3 | 3.2 | 0.8 | –
O=c1ccn([C@H]2C[C@H](O)[C@@H](CO)O2)c(=O)[nH]1 [2-deoxyuridine] | – | – | – | – | – | 1.465
YGSTWPG [Peptide II, NH2 Y-G-S-T-W-P-G-COOH] | 3.1 | 7.6 | 2.7 | 4.8 | 6.6 | –
HIFNQ-NH2 [Peptide VI, NH2 H-I-F-N-QNH2] | – | 5.8 | 1.0 | 4.2 | 0.8 | –

Other lines, results leading:

Elution Volumes on Nucleosil-Lecithin, Mobile Phase 0.1% TFA [1] | Elution Volumes on Nucleosil-Lecithin, Mobile Phase PBS [1] | Elution Volumes by Mobile Phase, 0.1% TFA [2] | Elution Volumes by Mobile Phase, PBS [2] | Elution Volumes by Mobile Phase, H2O [2] | Elution times [1] | Compound
4.1 | 4.2 | 2.9 | 5.0 | 4.9 | – | MPSWTGG [Peptide IV, NH2 M-P-S-W-T-G-G-COOH]
7.3 | 13.1 | 5.3 | 7.9 | 7.3 | – | YGSTWPGC [Peptide I, NH2 Y-G-S-T-W-P-G-C--COOH]
– | – | 6.6 | – | – | – | CGYGSTWP [Peptide V, NH2 C-G-Y-G-S-T-W-P--COOH]
– | – | 5.0 | 6.5 | 3.0 | – | CSCC[C@@H](N)C(=O)N1CCC[C@@H]1C(=O)N[C@H](CO)C(=O)N[C@H](Cc1c[nH]c2ccccc12)C(=O)N[C@@H](C(=O)NCC(=O)NCC(=O)N[C@H](CS)C(=O)O)[C@H](C)O [Peptide VIII, NH2 d,M-d,P-d,S-d,W-d,T-G-G-d,C--COOH] (H-[dM][dP][dS][dW][dT]GG[dC]-OH)
